Source: ChEMBL document CHEMBL5223109, “The discovery of BMS-737 as a potent, CYP17 lyase-selective inhibitor for the treatment of castration-resistant prostate cancer” (Bioorg Med Chem Lett, 2022)

Key:
[1] = Metabolic stability in human liver microsomes assessed as parent compound remaining relative to control; assay type: ADME, Microsome
[2] = Metabolic stability in dog liver microsomes assessed as parent compound remaining relative to control; assay type: ADME, Canis lupus familiaris, Microsome
[3] = Inhibition of cynomolgus monkey CYP21A2; assay type: ADME, Macaca fascicularis
[4] = Clearance in cynomolgus monkey at 1 mg/kg, iv; assay type: ADME, organism-based, Macaca fascicularis; conditions: in vivo
[5] = target: T1, Cytochrome P450 11B1, mitochondrial (Homo sapiens, UniProt P15538); assay: Inhibition of human CYP11B1; assay type: ADME
T1 sequence (P15538 whole entry): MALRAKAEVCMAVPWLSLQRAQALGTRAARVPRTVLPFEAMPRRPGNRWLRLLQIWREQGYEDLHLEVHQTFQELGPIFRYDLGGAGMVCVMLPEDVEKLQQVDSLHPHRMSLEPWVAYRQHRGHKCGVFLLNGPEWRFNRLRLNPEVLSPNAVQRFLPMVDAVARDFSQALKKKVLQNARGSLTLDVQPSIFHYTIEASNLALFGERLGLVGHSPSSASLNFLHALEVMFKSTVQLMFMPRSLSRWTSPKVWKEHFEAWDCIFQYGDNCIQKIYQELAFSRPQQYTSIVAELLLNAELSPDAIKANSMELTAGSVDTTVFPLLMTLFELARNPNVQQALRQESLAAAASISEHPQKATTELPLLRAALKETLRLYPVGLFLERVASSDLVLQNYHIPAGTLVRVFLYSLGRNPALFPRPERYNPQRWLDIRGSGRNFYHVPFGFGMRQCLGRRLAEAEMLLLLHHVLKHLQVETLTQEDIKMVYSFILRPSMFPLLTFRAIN

[6] = Metabolic stability in rat liver microsome assessed as half-life; assay type: ADME; conditions: liver microsomes
[7] = target: T2, Steroid 17-alpha-hydroxylase/17,20 lyase (Macaca fascicularis, UniProt Q2XVA1); assay: Inhibition of cynomolgus monkey adrenal gland CYP17A1; assay type: ADME, tissue-based
T2 sequence (Q2XVA1 whole entry): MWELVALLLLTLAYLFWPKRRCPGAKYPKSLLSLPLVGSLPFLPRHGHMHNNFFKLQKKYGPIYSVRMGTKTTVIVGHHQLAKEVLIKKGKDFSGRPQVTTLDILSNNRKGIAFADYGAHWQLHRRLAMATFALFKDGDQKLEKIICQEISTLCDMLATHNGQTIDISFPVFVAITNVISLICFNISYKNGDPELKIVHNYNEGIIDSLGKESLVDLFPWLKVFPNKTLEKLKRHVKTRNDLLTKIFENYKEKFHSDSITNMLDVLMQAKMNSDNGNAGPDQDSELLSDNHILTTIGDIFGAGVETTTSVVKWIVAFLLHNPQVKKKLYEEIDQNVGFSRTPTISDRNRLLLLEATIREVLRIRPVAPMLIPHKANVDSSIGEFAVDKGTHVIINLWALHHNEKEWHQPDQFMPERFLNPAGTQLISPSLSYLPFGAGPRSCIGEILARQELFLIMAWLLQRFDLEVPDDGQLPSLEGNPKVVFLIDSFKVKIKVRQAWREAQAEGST

[8] = Metabolic stability in dog liver microsome assessed as half-life; assay type: ADME, Canis lupus familiaris; conditions: liver microsomes
[9] = Tmax in cynomolgus monkey at 1 mg/kg, po; assay type: ADME, organism-based, Macaca fascicularis; conditions: in vivo
[10] = Half-life in cynomolgus monkey at 1 mg/kg, iv; assay type: ADME, organism-based, Macaca fascicularis; conditions: in vivo
Cytochrome P450 3A4 [11] = target: T3, Cytochrome P450 3A4 (Homo sapiens, UniProt P08684); assay: Induction of recombinant human CYP3A4; assay type: ADME; conditions: recombinant enzyme
T3 sequence (P08684 whole entry): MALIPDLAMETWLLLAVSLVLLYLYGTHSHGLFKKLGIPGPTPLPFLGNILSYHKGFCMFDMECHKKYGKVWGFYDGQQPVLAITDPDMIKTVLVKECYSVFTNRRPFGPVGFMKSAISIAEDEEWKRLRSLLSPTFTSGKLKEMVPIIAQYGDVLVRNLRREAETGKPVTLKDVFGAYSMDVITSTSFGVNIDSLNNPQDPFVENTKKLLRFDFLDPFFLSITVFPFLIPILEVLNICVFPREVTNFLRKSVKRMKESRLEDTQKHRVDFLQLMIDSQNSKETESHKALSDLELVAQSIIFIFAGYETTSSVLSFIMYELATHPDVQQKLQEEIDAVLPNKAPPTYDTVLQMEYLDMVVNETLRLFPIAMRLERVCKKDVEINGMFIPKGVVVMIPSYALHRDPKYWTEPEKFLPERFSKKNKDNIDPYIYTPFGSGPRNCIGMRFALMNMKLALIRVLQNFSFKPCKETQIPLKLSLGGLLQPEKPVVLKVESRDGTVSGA

[12] = target: T2, Steroid 17-alpha-hydroxylase/17,20 lyase; assay: Inhibition of cynomolgus monkey CYP17A1 hydroxylase activity; assay type: ADME
Cytochrome P450 3A4 [13] = target: T3, Cytochrome P450 3A4; assay: Inhibition of recombinant human CYP3A4; assay type: ADME
[14] = Metabolic stability in cynomolgus monkey liver microsomes assessed as parent compound remaining relative to control; assay type: ADME, Macaca fascicularis, Microsome
[15] = target: T2, Steroid 17-alpha-hydroxylase/17,20 lyase; assay: In vivo inhibition of CYP17A1 in cynomolgus monkey assessed as change in cortisol level in blood at 1 mg/kg, po measured upto 24 hrs; assay type: functional, organism-based
Steroid 21-hydroxylase = target: T4, Steroid 21-hydroxylase (Homo sapiens, UniProt P08686); assay: Inhibition of human CYP21A2; assay type: ADME
T4 sequence (P08686 whole entry): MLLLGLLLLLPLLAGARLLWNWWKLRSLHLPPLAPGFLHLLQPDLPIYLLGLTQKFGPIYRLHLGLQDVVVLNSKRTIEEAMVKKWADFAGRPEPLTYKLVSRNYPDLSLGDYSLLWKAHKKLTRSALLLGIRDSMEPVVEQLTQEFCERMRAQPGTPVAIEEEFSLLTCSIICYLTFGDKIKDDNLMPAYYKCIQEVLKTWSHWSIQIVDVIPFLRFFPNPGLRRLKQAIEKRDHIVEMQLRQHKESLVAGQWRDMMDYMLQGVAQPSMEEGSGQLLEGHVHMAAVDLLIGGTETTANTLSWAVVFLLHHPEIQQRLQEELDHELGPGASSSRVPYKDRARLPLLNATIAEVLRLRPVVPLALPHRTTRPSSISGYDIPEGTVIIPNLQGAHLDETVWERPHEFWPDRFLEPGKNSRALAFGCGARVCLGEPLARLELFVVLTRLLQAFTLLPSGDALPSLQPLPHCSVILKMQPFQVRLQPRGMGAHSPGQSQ

[16] = target: T2, Steroid 17-alpha-hydroxylase/17,20 lyase; assay: Selectivity ratio of IC50 for inhibition of cynomolgus monkey CYP17A1 hydroxylase activity to IC50 for inhibition of cynomolgus monkey CYP17A1 lyase activity; assay type: ADME
[17] = target: T2, Steroid 17-alpha-hydroxylase/17,20 lyase; assay: In vivo inhibition of CYP17A1 in cynomolgus monkey assessed as increase in progesterone level in blood at 1 mg/kg, po measured at 4 hrs; assay type: functional, organism-based
[18] = Metabolic stability in mouse liver microsome assessed as half-life; assay type: ADME; conditions: liver microsomes
[19] = target: T2, Steroid 17-alpha-hydroxylase/17,20 lyase; assay: In vivo inhibition of CYP17A1 in cynomolgus monkey assessed as fold increase in progesterone level in blood at 1 mg/kg, po measured upto 24 hrs; assay type: functional, organism-based
Cytochrome P450 1A2 = target: T5, Cytochrome P450 1A2 (Homo sapiens, UniProt P05177); assay: Inhibition of recombinant human CYP1A2; assay type: ADME
T5 sequence (P05177 whole entry): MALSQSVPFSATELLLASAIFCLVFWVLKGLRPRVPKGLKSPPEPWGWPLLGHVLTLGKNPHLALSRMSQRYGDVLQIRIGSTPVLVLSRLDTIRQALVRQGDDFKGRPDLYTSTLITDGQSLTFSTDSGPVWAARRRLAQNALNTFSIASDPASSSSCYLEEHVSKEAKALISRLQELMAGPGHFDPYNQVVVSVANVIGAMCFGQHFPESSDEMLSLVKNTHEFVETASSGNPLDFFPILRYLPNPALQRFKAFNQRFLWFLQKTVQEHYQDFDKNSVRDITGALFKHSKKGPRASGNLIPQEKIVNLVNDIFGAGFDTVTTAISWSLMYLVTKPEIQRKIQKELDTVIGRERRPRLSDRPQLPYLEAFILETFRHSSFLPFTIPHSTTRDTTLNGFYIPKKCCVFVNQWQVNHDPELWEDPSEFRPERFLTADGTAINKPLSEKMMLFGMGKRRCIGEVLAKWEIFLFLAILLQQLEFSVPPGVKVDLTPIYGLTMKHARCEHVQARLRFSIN

[20] = Cmax in cynomolgus monkey at 1 mg/kg, po; assay type: ADME, organism-based, Macaca fascicularis; parameters: dose 1 mg/kg, route po; conditions: in vivo

Structure (SMILES): Nc1ncncc1-c1ccnc2c1cnn2-c1ccc(F)cc1
- Stability [1]: 100%
- Stability [2]: 86%
- IC50 [3]: > 10000 nM
- clearance [4]: 2.8 mL/min/kg
- IC50 [5]: 2610 nM
- half-life [6]: 1.2 h
- IC50 [7]: 2 nM
- half-life [8]: 0.767 h
- Tmax [9]: 1 h
- half-life [10]: 16 h
- Activity (Cytochrome P450 3A4 [11]): Not Active
- IC50 [12]: 30 nM
- IC50 (Cytochrome P450 3A4 [13]): 36000 nM
- Stability [14]: 96%
- inhibition (INH) [15]: Not Active
- IC50 (Steroid 21-hydroxylase): > 10000 nM
- Ratio IC50 [16]: 5
- Activity [17]: 27 ng/dL
- half-life [18]: 0.583 h
- fold change (FC) [19]: 14
- IC50 (Cytochrome P450 1A2): > 40000 nM
- Cmax [20]: 1550 nM
